From ChEMBL document CHEMBL1201862, “PubChem BioAssay data set” (2004) come the findings set out here.

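In this assay, cells in 96-well plates receive the compound at five concentrations for 48 hours. Endpoints are linearly interpolated between the surrounding concentrations. GI50 = concentration required for 50% inhibition of growth.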 The source made the active and inactive calls. Cut-off read from the data, not from the text of the source: active = GI50 up to about 1.1 µM and inactive = higher.

Holding throughout (assay): inhibition of tumour cell growth, NCI panel, 48 h
The subject of assay [1] is 786-0.
Assay [2] has as its system BT-549.
The test system of assay [3] is COLO 205.
For assay [4], the system named is HCT-116.
The test system of assay [5] is HCT-15.
The test system of assay [6] is HT-29.
The subject of assay [7] is MDA-MB-231.
Assay [8] concerns MDA-MB-435.
Assay [9] relates to OVCAR-4.
The test system of assay [10] is SF-268.
The test system of assay [11] is SF-295.
Assay [12] relates to SK-MEL-28.
The test system of assay [13] is SK-OV-3.
In assay [14] the test system is SR.
In assay [15] the test system is T47D.
Assay [16] concerns UACC-62.
The test system of assay [17] is RXF 393.
Assay [18] deals with SK-MEL-2.
The subject of assay [19] is TK-10.
Assay [20] deals with A498.

On to `CSCCCN(CCCSC)CCCSC`, for which the GI50 in assay [1] is > 100 µM (inactive); in [2], > 100 µM (inactive); in assay [3], > 100 µM (inactive); in assay [4], > 100 µM (inactive); in [5] it was greater than 100 µM; in assay [6] it was > 100 µM (inactive). The GI50 in [7] was > 100 µM (inactive); in assay [8] it was 55.6 µM (inactive); in [9], > 100 µM (inactive); in assay [10] it was > 100 µM (inactive); in assay [11], > 100 µM (inactive); in assay [12] it was > 100 µM (inactive). For the same molecule, the GI50 in assay [13] was > 100 µM (inactive); in assay [14], 10.6 µM (inactive); in [15] it was > 100 µM (inactive); in [16], 97.5 µM (inactive).

As to `O=S(=O)(Nc1nc2ccccc2nc1N1CCCCCC1)c1ccccc1`, the GI50 in assay [1] is > 100 µM (inactive); in [2], 19 µM (inactive); in assay [3], > 100 µM (inactive); in [4], > 100 µM (inactive); in [5], 17.2 µM; in assay [6] it was 27.6 µM (inactive). In addition, the GI50 was > 100 µM (inactive) in [7]; 23 µM (inactive) in assay [8]; 4.05 µM (inactive) in [9]; 19.1 µM (inactive) in assay [17]; 37.7 µM (inactive) in assay [10]; 24.1 µM (inactive) in assay [11]. In addition, the GI50 in assay [12] is 28.2 µM (inactive); in assay [18] it was 16.3 µM (inactive); in assay [13] it was 28.2 µM (inactive); in [14] it was 25.3 µM (inactive); in assay [15], > 100 µM (inactive); in assay [19] it was 16.8 µM (inactive). In addition, the GI50 in assay [16] is 18.4 µM (inactive).

Regarding `CCOC(=O)CC1(Cc2ccc(OCc3ccccc3)cc2)C(=O)OC(c2ccccc2)N1C(=O)c1ccccc1` (stereo not drawn), the GI50 was > 100 µM (inactive) in assay [1]; > 100 µM (inactive) in assay [2]; > 100 µM (inactive) in assay [3]; > 100 µM (inactive) in assay [4]; greater than 100 µM in assay [5]; > 100 µM (inactive) in assay [6]. For the same molecule, the GI50 in assay [7] was 68.9 µM (inactive); in [8], > 100 µM (inactive); in [9], > 100 µM (inactive); in [17] it was > 100 µM (inactive); in [10], > 100 µM (inactive); in assay [11] it was > 100 µM (inactive). Besides, the GI50 in assay [12], in assay [18], in [13], in [14], in [15] and in assay [19] was > 100 µM (inactive) in each case. For the same molecule, the GI50 in assay [16] was > 100 µM (inactive).

Regarding `NC(=O)NCCCC(NC(=O)OCCCCn1ccc(=O)[nH]c1=O)C(=O)O` (stereo not drawn), the GI50 in [1] is > 100 µM (inactive); in assay [2], > 100 µM (inactive); in assay [3] it was > 100 µM (inactive); in assay [4] it was > 100 µM (inactive); in [5], greater than 100 µM; in assay [6] it was > 100 µM (inactive). Besides, the GI50 in [7], in [8], in [9], in assay [17], in assay [10] and in assay [11] was > 100 µM (inactive) throughout. Further, the GI50 in assay [12], in [18], in assay [13], in [14], in [15] and in assay [19] was > 100 µM (inactive) throughout. Further, the GI50 in assay [16] was > 100 µM (inactive).

For `N#CC1CCN2N=C(c3ccccc3)SC12c1ccccc1` (stereo not drawn), the GI50 was 89.1 µM (inactive) in assay [1]; 43 µM (inactive) in assay [2]; 40.7 µM (inactive) in [3]; 35.2 µM (inactive) in assay [4]; 38.5 µM in [5]; 32.1 µM (inactive) in assay [6]. The GI50 in [7] is > 100 µM (inactive); in [8] it was 61.4 µM (inactive); in assay [9], 76.7 µM (inactive); in assay [17], 31.3 µM (inactive); in assay [10], > 100 µM (inactive); in assay [11] it was 60.5 µM (inactive). Further, the GI50 in assay [12] is > 100 µM (inactive); in assay [18], 53.3 µM (inactive); in assay [13], > 100 µM (inactive); in [14], 37.1 µM (inactive); in [15] it was 24.5 µM (inactive); in assay [19], > 100 µM (inactive). Besides, the GI50 in assay [16] was 4.91 µM (inactive).

Regarding `C/C(=N/NC(=S)Nc1ccc(C)cc1)c1ccccn1`, the GI50 in assay [1] is 0.0427 µM (active); in assay [20], 2.51 µM (inactive); in assay [2], 4.38 µM (inactive); in assay [3], < 0.0166 µM (active); in assay [4] it was < 0.0146 µM (active); in assay [5], 0.0221 µM. Further, the GI50 is < 0.0366 µM (active) in [6]; < 0.0154 µM (active) in assay [7]; 1.07 µM (active) in [8]; 1.47 µM (inactive) in [9]; 0.78 µM (active) in [17]; 0.114 µM (active) in [10]. For the same molecule, the GI50 is 0.193 µM (active) in assay [11]; 2.1 µM (inactive) in assay [12]; 1.41 µM (inactive) in assay [18]; 0.0363 µM (active) in [13]; 0.049 µM (active) in [15]; 0.19 µM (active) in assay [19]. In addition, in assay [16], the GI50 is 0.105 µM (active).

As for `CC(C)C1CC(CO)(CNc2nc(N)nc(Cl)c2C=O)C1` (stereo not drawn), the GI50 in assay [1] was 31.3 µM (inactive); in [20], 15.1 µM (inactive); in [2] it was 11.4 µM (inactive); in [3], 12.3 µM (inactive); in assay [4], 2.84 µM (inactive); in assay [5], 4.43 µM. The GI50 was 2.48 µM (inactive) in assay [6]; 2.45 µM (inactive) in [7]; 2.23 µM (inactive) in assay [8]; 4.81 µM (inactive) in [9]; 7.93 µM (inactive) in [17]; 4.79 µM (inactive) in assay [10]. Further, the GI50 was 16.6 µM (inactive) in [11]; 1.88 µM (inactive) in [12]; 1.8 µM (inactive) in [18]; 6.79 µM (inactive) in assay [13]; 6.01 µM (inactive) in [15]; > 66.8 µM (inactive) in [19]. Moreover, the GI50 in [16] was 2 µM (inactive).

Regarding `O=C1NC(S(=O)(=O)O)=NNC12c1ccccc1-c1ccccc12`, the GI50 in assay [1] is > 10 µM (inactive); in [2], > 10 µM (inactive); in assay [3], > 10 µM (inactive); in assay [4], > 10 µM (inactive); in assay [5], greater than 10 µM; in [6], > 10 µM (inactive). For the same molecule, the GI50 in assay [7], in assay [8], in assay [9], in assay [17], in [10] and in [11] was > 10 µM (inactive) each time. Besides, the GI50 in assay [12] was > 10 µM (inactive); in assay [13] it was > 10 µM (inactive); in [14] it was > 10 µM (inactive); in [15], 4.16 µM (inactive); in assay [19], > 10 µM (inactive); in [16], > 10 µM (inactive).
